Laboratory results from ChEMBL document CHEMBL3739380, “Discovery of benzothiazoles as antimycobacterial agents: Synthesis, structure-activity relationships and binding studies with Mycobacterium tuberculosis decaprenylphosphoryl-β-D-ribose 2'-oxidase” (Bioorg Med Chem, 2015).
≈ marks a conversion by molar mass, not a printed value. Calls of active or inactive are those of the source. The rule behind the calls is not given here.

Assays:
[1] = test system: Mycobacterium tuberculosis; assay: Antimycobacterial activity against Mycobacterium tuberculosis H37Rv ATCC 27294 after 5 days by microdilution method; format: functional; conditions: H37Rv ATCC 27294, 120 h
[2] = Inhibition of Mycobacterium tuberculosis DprE1 using farnesyl-phosphoryl-beta-D-ribofuranose as substrate preincubated for 30 mins before substrate addition by peroxidase coupled assay
[3] = test system: Salmonella typhimurium; assay: Genotoxicity in Salmonella typhimurium TA98 at 5000 ug/plate by Ames test in absence of S9 fraction; format: toxicity, organism-based; conditions: salmonella enterica subsp. enterica serovar typhimurium
[4] = test system: Salmonella typhimurium; assay: Genotoxicity in Salmonella typhimurium TA100 at 5000 ug/plate by Ames test in absence of S9 fraction; format: toxicity, organism-based; conditions: salmonella enterica subsp. enterica serovar typhimurium
[5] = test system: Salmonella typhimurium; assay: Genotoxicity in Salmonella typhimurium TA98 at 5000 ug/plate by Ames test in presence of S9 fraction; format: toxicity, organism-based; conditions: salmonella enterica subsp. enterica serovar typhimurium
[6] = test system: Salmonella typhimurium; assay: Genotoxicity in Salmonella typhimurium TA100 at 5000 ug/plate by Ames test in presence of S9 fraction; format: toxicity, organism-based; conditions: salmonella enterica subsp. enterica serovar typhimurium
[7] = test system: Mycobacterium tuberculosis; assay: Binding affinity to N-terminal His-tagged Mycobacterium tuberculosis DprE1 assessed as molecular weight shift due to semimercaptal covalent DprE1 adduct formation at 400 uM incubated for 5 hrs in presence of FAD and FPR by deconvoluted mass spectrometry
[8] = biological target: Cytochrome P450 2C9 (Homo sapiens, UniProt P11712); assay: Inhibition of human recombinant CYP2C9 by fluorescence assay; format: ADME
[9] = biological target: T1, Cytochrome P450 1A2 (Homo sapiens, UniProt P05177); assay: Inhibition of human recombinant CYP1A2 by fluorescence assay; format: ADME
T1 sequence (P05177 whole entry): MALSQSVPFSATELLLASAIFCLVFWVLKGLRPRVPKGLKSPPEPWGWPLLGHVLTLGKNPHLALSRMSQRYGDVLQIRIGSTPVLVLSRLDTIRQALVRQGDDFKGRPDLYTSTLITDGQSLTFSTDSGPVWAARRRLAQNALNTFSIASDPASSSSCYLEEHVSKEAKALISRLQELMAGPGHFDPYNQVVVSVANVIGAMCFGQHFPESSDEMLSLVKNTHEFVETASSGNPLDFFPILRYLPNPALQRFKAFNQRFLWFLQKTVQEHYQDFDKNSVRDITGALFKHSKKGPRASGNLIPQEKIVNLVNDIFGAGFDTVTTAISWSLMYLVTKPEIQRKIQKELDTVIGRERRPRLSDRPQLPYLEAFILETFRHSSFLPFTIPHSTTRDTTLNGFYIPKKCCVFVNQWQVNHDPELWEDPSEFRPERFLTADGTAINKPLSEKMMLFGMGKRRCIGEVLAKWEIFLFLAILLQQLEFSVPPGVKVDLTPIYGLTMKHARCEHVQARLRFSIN

[10] = biological target: Cytochrome P450 2D6 (Homo sapiens, UniProt P10635); assay: Inhibition of human recombinant CYP2D6 by fluorescence assay; format: ADME
[11] = biological target: Cytochrome P450 2C19 (Homo sapiens, UniProt P33261); assay: Inhibition of human recombinant CYP2C19 by fluorescence assay; format: ADME
[12] = biological target: Cytochrome P450 3A4 (Homo sapiens, UniProt P08684); assay: Inhibition of human recombinant CYP3A4 by fluorescence assay; format: ADME
[13] = test system: A549; assay: Cytotoxicity against human A549 cells after 72 hrs by fluorescence assay; format: cell-based; conditions: A549, 72 h
[14] = Aqueous solubility of the compound; format: physicochemical; conditions: buffer
[15] = Fraction unbound in mouse plasma protein; format: ADME, cell-free
[16] = Intrinsic clearance in mouse liver microsomes; format: ADME; conditions: read-out: CLH
[17] = test system: Salmonella typhimurium; assay: Genotoxicity in Salmonella typhimurium TA100 at 50 ug/plate by Ames test in absence of S9 fraction; format: toxicity, organism-based; conditions: salmonella enterica subsp. enterica serovar typhimurium
[18] = test system: Salmonella typhimurium; assay: Genotoxicity in Salmonella typhimurium TA100 at 16 ug/plate by Ames test in presence of S9 fraction; format: toxicity, organism-based; conditions: salmonella enterica subsp. enterica serovar typhimurium
[19] = test system: Salmonella typhimurium; assay: Genotoxicity in Salmonella typhimurium TA98 at 500 ug/plate by Ames test in absence of S9 fraction; format: toxicity, organism-based; conditions: salmonella enterica subsp. enterica serovar typhimurium
[20] = test system: Salmonella typhimurium; assay: Genotoxicity in Salmonella typhimurium TA98 at 500 ug/plate by Ames test in presence of S9 fraction; format: toxicity, organism-based; conditions: salmonella enterica subsp. enterica serovar typhimurium
[21] = test system: Salmonella typhimurium; assay: Genotoxicity in Salmonella typhimurium TA98 at 50 ug/plate by Ames test in absence of S9 fraction; format: toxicity, organism-based; conditions: salmonella enterica subsp. enterica serovar typhimurium
[22] = test system: Salmonella typhimurium; assay: Genotoxicity in Salmonella typhimurium TA98 at 50 ug/plate by Ames test in presence of S9 fraction; format: toxicity, organism-based; conditions: salmonella enterica subsp. enterica serovar typhimurium
[23] = test system: Salmonella typhimurium; assay: Genotoxicity in Salmonella typhimurium TA100 at 1600 ug/plate by Ames test in absence of S9 fraction; format: toxicity, organism-based; conditions: salmonella enterica subsp. enterica serovar typhimurium
[24] = test system: Salmonella typhimurium; assay: Genotoxicity in Salmonella typhimurium TA100 at 160 ug/plate by Ames test in presence of S9 fraction; format: toxicity, organism-based; conditions: salmonella enterica subsp. enterica serovar typhimurium
[25] = test system: Mycobacterium tuberculosis; assay: Antimycobacterial activity against Mycobacterium tuberculosis H37Rv ATCC 27294 infected in BMDM assessed as log reduction CFU after 7 days by killing kinetic assay; format: functional
[26] = test system: Mycobacterium tuberculosis; assay: Antimycobacterial activity against Mycobacterium tuberculosis H37Rv ATCC 27294 infected in human THP1 cells assessed as log reduction CFU after 7 days by killing kinetic assay; format: functional, THP-1
[27] = test system: Salmonella typhimurium; assay: Genotoxicity in Salmonella typhimurium TA98 at 160 ug/plate by Ames test in absence of S9 fraction; format: toxicity, organism-based; conditions: salmonella enterica subsp. enterica serovar typhimurium
[28] = Intrinsic clearance in human liver microsomes; format: ADME; conditions: read-out: CLH
[29] = Clearance in iv dosed mouse; format: ADME, organism-based; conditions: in vivo
[30] = Oral bioavailability in mouse; format: ADME, organism-based; conditions: in vivo
[31] = AUC100 in po dosed mouse; format: ADME, organism-based; conditions: in vivo
[32] = Volume of distribution at steady state in mouse; format: ADME, organism-based; conditions: in vivo, read-out: Vdss
[33] = test system: Salmonella typhimurium; assay: Genotoxicity in Salmonella typhimurium TA98 at 1600 ug/plate by Ames test in absence of S9 fraction; format: toxicity, organism-based; conditions: salmonella enterica subsp. enterica serovar typhimurium
[34] = test system: Salmonella typhimurium; assay: Genotoxicity in Salmonella typhimurium TA100 at 16 ug/plate by Ames test in absence of S9 fraction; format: toxicity, organism-based; conditions: salmonella enterica subsp. enterica serovar typhimurium
[35] = test system: Salmonella typhimurium; assay: Genotoxicity in Salmonella typhimurium TA98 at 1600 ug/plate by Ames test in presence of S9 fraction; format: toxicity, organism-based; conditions: salmonella enterica subsp. enterica serovar typhimurium

Cytochrome P450 2D6, sequence (P10635 whole entry): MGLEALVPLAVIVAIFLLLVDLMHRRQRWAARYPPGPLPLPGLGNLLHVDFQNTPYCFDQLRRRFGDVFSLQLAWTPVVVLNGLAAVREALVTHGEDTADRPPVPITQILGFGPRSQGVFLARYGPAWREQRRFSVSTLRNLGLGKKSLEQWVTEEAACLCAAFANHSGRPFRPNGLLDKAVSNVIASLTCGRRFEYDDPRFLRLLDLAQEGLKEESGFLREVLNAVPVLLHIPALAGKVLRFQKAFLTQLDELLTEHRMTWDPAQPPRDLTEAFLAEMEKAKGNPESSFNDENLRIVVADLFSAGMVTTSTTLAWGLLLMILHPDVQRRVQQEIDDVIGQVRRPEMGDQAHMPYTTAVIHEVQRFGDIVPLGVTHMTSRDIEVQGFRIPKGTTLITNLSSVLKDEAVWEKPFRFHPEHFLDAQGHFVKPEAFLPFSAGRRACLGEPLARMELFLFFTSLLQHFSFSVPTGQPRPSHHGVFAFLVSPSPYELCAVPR
Cytochrome P450 3A4, sequence (P08684 whole entry): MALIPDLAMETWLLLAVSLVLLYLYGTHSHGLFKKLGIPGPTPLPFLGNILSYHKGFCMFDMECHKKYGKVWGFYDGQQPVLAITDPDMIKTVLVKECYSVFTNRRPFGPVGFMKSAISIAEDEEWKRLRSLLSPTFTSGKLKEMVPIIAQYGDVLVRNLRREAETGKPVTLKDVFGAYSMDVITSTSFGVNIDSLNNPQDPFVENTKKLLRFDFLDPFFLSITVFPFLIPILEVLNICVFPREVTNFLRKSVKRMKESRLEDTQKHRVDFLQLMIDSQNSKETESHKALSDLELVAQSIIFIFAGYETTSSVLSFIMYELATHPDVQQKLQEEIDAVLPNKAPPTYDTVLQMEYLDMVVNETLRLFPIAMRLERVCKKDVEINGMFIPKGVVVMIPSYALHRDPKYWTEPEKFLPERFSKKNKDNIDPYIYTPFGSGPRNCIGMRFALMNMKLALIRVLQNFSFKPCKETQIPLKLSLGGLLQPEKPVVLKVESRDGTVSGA
Cytochrome P450 2C19, sequence (P33261 whole entry): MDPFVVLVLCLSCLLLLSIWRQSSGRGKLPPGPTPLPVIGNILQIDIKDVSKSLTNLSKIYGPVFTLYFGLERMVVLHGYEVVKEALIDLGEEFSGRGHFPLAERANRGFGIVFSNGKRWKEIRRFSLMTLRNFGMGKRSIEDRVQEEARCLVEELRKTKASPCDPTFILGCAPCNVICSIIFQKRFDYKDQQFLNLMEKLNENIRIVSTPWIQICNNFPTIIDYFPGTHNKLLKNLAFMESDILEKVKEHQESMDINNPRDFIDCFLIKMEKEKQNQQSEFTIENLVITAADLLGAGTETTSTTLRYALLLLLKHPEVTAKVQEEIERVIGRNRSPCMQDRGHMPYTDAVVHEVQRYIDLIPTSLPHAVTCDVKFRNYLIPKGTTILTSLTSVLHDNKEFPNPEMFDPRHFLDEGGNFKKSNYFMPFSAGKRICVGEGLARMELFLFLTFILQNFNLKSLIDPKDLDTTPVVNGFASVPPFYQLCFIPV
Cytochrome P450 2C9, sequence (P11712 whole entry): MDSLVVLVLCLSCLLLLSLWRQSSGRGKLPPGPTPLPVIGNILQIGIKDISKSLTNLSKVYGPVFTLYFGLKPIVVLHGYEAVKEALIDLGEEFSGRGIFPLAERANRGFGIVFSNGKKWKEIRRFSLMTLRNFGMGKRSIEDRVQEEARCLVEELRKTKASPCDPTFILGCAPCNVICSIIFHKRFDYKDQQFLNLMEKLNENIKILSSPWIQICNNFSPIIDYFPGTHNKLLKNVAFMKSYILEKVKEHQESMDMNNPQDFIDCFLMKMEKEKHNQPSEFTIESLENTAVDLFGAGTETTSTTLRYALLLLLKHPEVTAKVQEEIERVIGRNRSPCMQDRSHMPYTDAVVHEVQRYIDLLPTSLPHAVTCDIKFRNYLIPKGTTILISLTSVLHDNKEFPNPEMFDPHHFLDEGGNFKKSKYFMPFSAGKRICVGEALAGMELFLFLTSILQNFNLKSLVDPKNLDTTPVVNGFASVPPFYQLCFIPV

Compound `N#Cc1cc(C(F)(F)F)cc2nc(C(=O)N3CCCCC3)sc12` has an MIC [1] of over 32 µg/mL.

With `Cc1c(C(F)(F)F)cc2nc(C3=NCCO3)sc2c1[N+](=O)[O-]` the IC50 [2] was 3.9 µM, the MIC [1] was 8 µg/mL (≈ 24.1 µM) and the Activity [3] was “Non-toxic”. The Activity [4] was “Non-toxic”, the Activity [5] was “Non-toxic” and the Activity [6] was “Non-toxic”.

In the case of `O=C(NCc1cccnc1)c1sc2c([N+](=O)[O-])cc(C(F)(F)F)cc2[n+]1[O-]`, the MIC [1] is reported as 0.03 µg/mL (≈ 0.0753 µM) and the Activity [7] is reported as “Active”.

For `COCCN1CCN(C(=O)c2nc3cc(C(F)(F)F)cc([N+](=O)[O-])c3s2)CC1`, the IC50 [8] was “Not Active”, the IC50 [9] was 17.9 µM and the IC50 [2] was 0.247 µM. It also gave an MIC [1] of 0.21 µg/mL (≈ 0.502 µM), an IC50 [10] of 5.24 µM and an IC50 [11] of 55.9 µM. It also gave an IC50 [12] of 19.5 µM, an IC50 [13] of 90 µM and a solubility [14] of 331 µM (≈ 138 µg/mL). The fraction unbound [15] was 0.061, the microsomal CLint [16] was 25 µL/min/mg and the Activity [17] was “Toxic”. The Activity [18] was “Toxic”, the Activity [19] was “Toxic” and the Activity [20] was “Toxic”.

With `COCCN1CCN(C(=O)c2sc3c([N+](=O)[O-])cc(C(F)(F)F)cc3[n+]2[O-])CC1` the IC50 [2] was 0.027 µM, the MIC [1] was 0.03 µg/mL (≈ 0.0691 µM) and the Activity [21] was “Toxic”. The Activity [17] was “Toxic”, the Activity [22] was “Toxic” and the Activity [18] was “Toxic”.

For `O=C(c1nc2cc(C(F)(F)F)cc([N+](=O)[O-])c2s1)N1CCCCC1`, the IC50 [2] was 0.213 µM, the MIC [1] was 0.7 µg/mL (≈ 1.95 µM) and the Activity [17] was “Toxic”. For the same compound, the Activity [18] was “Toxic”, the Activity [19] was “Toxic” and the Activity [20] was “Toxic”.

For `O=[N+]([O-])c1cc(C(F)(F)F)cc2nc(C3=NCCO3)sc12`, the MIC [1] was 1 µg/mL (≈ 3.15 µM), the Activity [19] was “Toxic” and the Activity [20] was “Toxic”. The Activity [23] was “Toxic” and the Activity [24] was “Toxic”.

`Cc1c(C(F)(F)F)cc2nc(C(=O)N[C@@H](CCO)C(=O)N3CCCCC3)sc2c1[N+](=O)[O-]` showed an IC50 [2] of 1.2 µM, an MIC [1] of 0.7 µg/mL (≈ 1.48 µM) and an Activity [25] of 1 log10CFU/ml. It also gave an Activity [26] of 1 log10CFU/ml.

For `O=C(O)c1cc(C(F)(F)F)cc2nc(C(=O)N3CCCCC3)sc12`, the IC50 [2] was over 100 µM and the MIC [1] was over 32 µg/mL.

With `O=[N+]([O-])c1cc(C(F)(F)F)cc2c1sc(C1=NCCO1)[n+]2[O-]` the IC50 [2] was 0.276 µM, the MIC [1] was 0.4 µg/mL (≈ 1.2 µM) and the Activity [17] was “Toxic”. For the same compound, the Activity [22] was “Toxic”, the Activity [18] was “Toxic” and the Activity [27] was “Toxic”.

For `O=C(N[C@@H](CO)C(=O)N1CCCC1)c1nc2cc(C(F)(F)F)cc([N+](=O)[O-])c2s1`, the IC50 [2] was 0.349 µM and the MIC [1] was 0.35 µg/mL (≈ 0.809 µM).

Work on `Cc1c(C(F)(F)F)cc2nc(C(=O)N[C@@H](CO)C(=O)N3CCCC3)sc2c1[N+](=O)[O-]` yielded an IC50 [2] of 1.2 µM and an MIC [1] of 1 µg/mL (≈ 2.24 µM).

For `O=C([C@@H]1COC(c2nc3cc(C(F)(F)F)cc([N+](=O)[O-])c3s2)=N1)N1CCCC1`, the IC50 ([8]; read-out: IC50) was 12.4 µM, the IC50 [9] was 53.1 µM and the IC50 [2] was 0.654 µM. For the same compound, the MIC [1] was 1.4 µg/mL (≈ 3.38 µM), the IC50 [10] was 3.4 µM and the IC50 [11] was 24.2 µM. For the same compound, the IC50 [12] was 18.6 µM, the IC50 [13] was 82 µM and the solubility [14] was 64.6 µM (≈ 26.8 µg/mL). For the same compound, the fraction unbound [15] was 0.06, the microsomal CLint [16] was 76.6 µL/min/mg and the microsomal CLint [28] was 5.3 µL/min/mg. For the same compound, the clearance [29] was 49 mL/min/kg, the bioavailability [30] was 27% and the AUC [31] was 9180 ng·h/mL. The Vd [32] was 1.44 L/kg, the Activity [18] was “Toxic” and the Activity [33] was “Toxic”. The Activity [34] was “Toxic” and the Activity [35] was “Toxic”.

Work on `Cc1c(C(F)(F)F)cc2nc(C3=N[C@H](C(=O)N4CCCC4)CO3)sc2c1[N+](=O)[O-]` yielded an IC50 ([8]; read-out: IC50) of 22.1 µM, an IC50 [9] of over 100 µM and an IC50 [2] of 1.2 µM. For the same compound, the MIC [1] was 2 µg/mL (≈ 4.67 µM), the IC50 [10] was over 100 µM and the IC50 [11] was 73.5 µM. The IC50 [12] was over 100 µM, the IC50 [13] was over 100 µM and the solubility [14] was 12 µM (≈ 5.14 µg/mL). For the same compound, the fraction unbound [15] was 0.063, the microsomal CLint [16] was 37.9 µL/min/mg and the microsomal CLint [28] was 9.6 µL/min/mg. For the same compound, the clearance [29] was 83.5 mL/min/kg, the bioavailability [30] was 22.5% and the AUC [31] was 10200 ng·h/mL. The Vd [32] was 3.5 L/kg, the Activity [3] was “Non-toxic” and the Activity [4] was “Non-toxic”. For the same compound, the Activity [5] was “Non-toxic” and the Activity [6] was “Non-toxic”.
